Results on three compounds are retold here after patent US9439430B2, “Method of controlling resistant harmful plants” (priority 2012, dated 2016).

In one assay the test system is AMAPA. Kind of assay: Greenhouse test, post-emergence (PO) application, foliar effect. The class given is in vivo, Amaranthus palmeri. The note with it: AMAPA resistant - group B (TSR), C1 (TSR) and G (NTR), (A) 50, (B) 20, mixture 50 + 20 g of AS/ha, 3 weeks after application. The text has this: (§1) The 1:1 mixture of the two soil types was used specifically for cultivating small-seeded dicotyledonous weed since the standard field soil on its own tends to silt up, which may have an adverse effect on the emergence of small-seeded weeds. The resistances mentioned in the tables were confirmed beforehand in standard monitoring experiments. Nevertheless, the origins examined may have additional, hitherto unconfirmed resistances to various mechanisms of action.
(§2) The pots were then cultivated in a greenhouse (12-16 h light, temperature day 20-22° C., night 15-18° C.) until the time of application. The pots were treated at various BBCH stages of the seeds/plants on a laboratory track sprayer with spray liquors comprising the compositions according to the invention, mixtures of the prior art or the individual components. Application of the active compounds or active compound combinations and wetting agents formulated as WG, WP, EC or otherwise was carried out at the appropriate growth stages of the plants. The amount of water used for spray application was 100-600 l/ha. After the treatment, the plants were returned to the greenhouses and fertilized and watered as required. The pots were cultivated in a greenhouse (12-16 h light, temperature day 20-22° C., night 15-18° C.).
(§3) 3 weeks after the application, the foliar effect was evaluated on a scale of 0-100%:
(§4) 0%=no noticeable effect compared to untreated plants
(§5) 100%=full effect compared to untreated plants
(§6) The following abbreviations were used: • BBCH the BBCH code provides information about the morphological development stage of a plant. Officially, the abbreviation denotes the Biologische Bundesanstalt, Bundessortenamt and CHemische Industrie [Federal Biological Institute for Agriculture and Forestry, Federal Office for Crop Plant Varieties, Chemical Industry]. The range of BBCH 00-10 denotes the germination stages of the seeds until surface penetration. The range of BBCH 11-25 denotes the leaf development stages until stocking (corresponds to the number of tillers or side-shoots). • PE pre-emergence soil application; BBCH of the seeds/plants 00-10 • PO post-emergence application on the green parts of the plants; BBCH of the plants 11-25 • IU soil loamy silt—standard field soil • l/ha liters per hectare • S sensitive—the weed populations are sensitive to the active compounds tested • TSR target-site resistance. The weed populations comprise biotypes having a site-of-action-specific resistance, i.e. the binding site at the site of action is modified as a result of natural mutations in the gene sequence so that the active compounds are no longer able to bind, or bind in an unsatisfactory manner, and are therefore no longer able to act. • NTR non-target-site herbicide resistance; this is differentiated, inter alia, into EMR (Enhanced Metabolic Resistance) (the weed populations comprise biotypes having metabolic resistance, i.e. the plants are capable of metabolizing the active compounds more quickly via enzyme complexes, i.e. the active compounds are degraded more quickly in the plant), into reduced penetration into the plant, reduced translocation in the plant, accelerated excretion. […]

For the next assay, the system named is EPHHL. Described as above. Type of assay: in vivo, Euphorbia heterophylla. Particulars: (A) 50, (B) 20, mixture 50 + 20 g of AS/ha, 3 weeks after application.
Text: as §1, §2, §3, §4, §5, §6

Another assay has as its system APESV. Kind of assay: Greenhouse test, pre-emergence (PE) soil application. The class given is in vivo, Apera spica-venti. The arrangement: key: % effect: 0 = no effect, 100 = full effect vs untreated.
Text: as §1, §2, §3, §4, §5, §6

For assay [1], the system named is ERICA. The description is as above. Type of assay: in vivo, Erigeron canadensis. Also noted: key: % effect: 0 = no effect, 100 = full effect vs untreated.
Text: as §1, §2, §3, §4, §5, §6

The next assay deals with CHEAL. The description is as above. Type of assay: in vivo, Chenopodium album. Also noted: key: % effect: 0 = no effect, 100 = full effect vs untreated.
Text: as §1, §2, §3, §4, §5, §6

The next assay deals with LOLSS. Described as above. Type of assay: in vivo, Lolium spp. The arrangement: key: % effect: 0 = no effect, 100 = full effect vs untreated plants.
Text: as §1, §2, §3, §4, §5, §6

The next assay deals with ERIBO. The description is as above. Also noted: key: % effect: 0 = no effect, 100 = full effect vs untreated. Type of assay: in vivo, Erigeron bonariensis.
Text: as §1, §2, §3, §4, §5, §6

Assay [2] has as its system ERICA. Kind of assay: Greenhouse test, post-emergence (PO) application, foliar effect. Type of assay: in vivo, Erigeron canadensis. The note with it: (A) 50, (B) 20, mixture 50 + 20 g of AS/ha, 3 weeks after application.
Text: as §1, §2, §3, §4, §5, §6

The test system of assay [3] is TTTTT (all resistant and sensitive biotypes). Kind of assay: Greenhouse test, PE application, mean over all resistant and sensitive biotypes. Type of assay: in vivo. Particulars: (A) 12.5, (B) 20, mixture 12.5 + 20 g of AS/ha; for TTTTT resistant mean (effect): mean of resistant biotypes (n = 16); for TTTTT sensitive mean (effect): mean of sensitive biotypes (n = 11).
Text: as §1, §2, §3, §4, §5, §6

The mark [4] stands for this setting: EPHHL resistant - group B (TSR) and G (NTR).
The mark [5] stands for this setting: EPHHL resistant - group B (TSR).
Where [6] appears, read: group (B) compound alone, 20 g of AS/ha.
The mark [7] stands for this setting: ERICA resistant - group B (NA) and G (NTR).

In the case of `COC(=O)c1csc(C)c1S(=O)(=O)NC(=O)n1nc(OC)n(C)c1=O` [(B5), thiencarbazone-methyl], the foliar effect in the assay with AMAPA was found to be 0%. Moreover, in the assay on EPHHL (setting [4]), the foliar effect is on record as 30%. In addition, the foliar effect with EPHHL (setting [5]) is given as 20%. In addition, the foliar effect with EPHHL (EPHHL sensitive) came to 70%. In addition, in the assay on APESV (setting [6]), the “effect on APESV resistant - group B (TSR, NTR) and K1/3 (NA)” value (from here on “effect on APESV resistant - group B”) is given as 20; the “effect on APESV sensitive” value stood at 95. For the same compound, in the assay on ERICA [1] (setting [6]), the “effect on ERICA resistant - group B (NA) and G (NTR)” value (from here on “effect on ERICA resistant - group B”) stood at 0; the “effect on ERICA sensitive” value came out at 60. Also, in the assay on CHEAL (setting [6]), the “effect on CHEAL resistant - group B (TSR), C1 (NA) and G (NTR)” value (from here on “effect on CHEAL resistant - group B”) worked out at 60; the “effect on CHEAL sensitive” value was found to be 90. In the assay with LOLSS (setting [6]), the “effect on LOLSS resistant - group G (NTR)” value (from here on “effect … - group G (NTR)”) is listed as 70; the “effect on LOLSS resistant group A (TSR, NTR), B (NTR) and C2 (NA)” value (shortened to “effect … (NTR) and C2 (NA)”) was 80; the “effect on LOLSS resistant group A (TSR, NTR), B (TSR, NTR) and C2 (NA)” value (from here on “effect … (TSR, NTR) and C2 (NA)”) came to 20; the “effect on LOLSS sensitive” value was found to be 75. Besides, in the assay on ERIBO (setting [6]), the “effect on ERIBO resistant - group B (NA) and G (NTR)” value (from here on “effect on ERIBO resistant - group B”) is on record as 0; the “effect on ERIBO sensitive” value was determined as 60. Also, the foliar effect with ERICA [2] (setting [7]) is on record as 60%. In addition, in the assay with ERICA [2] (ERICA sensitive), the foliar effect stood at 70%. Besides, in [3], the “TTTTT resistant mean (effect)” value is 22% and the “TTTTT sensitive mean (effect)” value is 73%.

As for `Cc1ccc2c(c1)[C@H](Nc1nc(N)nc(C(C)F)n1)[C@@H](C)C2` (stereo partly drawn) [(A), indaziflam], the foliar effect with AMAPA was determined as 50%. Also, in the assay with EPHHL (setting [4]), the foliar effect worked out at 50%. The foliar effect in the assay with EPHHL (setting [5]) was 55%. Further, in the assay with EPHHL (EPHHL sensitive), the foliar effect was 60%. For the same compound, in the assay on APESV ((A) alone, 12.5 g of AS/ha), the “effect on APESV resistant - group B” value was 70; the “effect on APESV sensitive” value turned out to be 90. Further, in the assay with ERICA [1] ((A) alone, 12.5 g of AS/ha), the “effect on ERICA resistant - group B” value was determined as 60; the “effect on ERICA sensitive” value worked out at 70. Moreover, in the assay with CHEAL ((A) alone, 12.5 g of AS/ha), the “effect on CHEAL resistant - group B” value is 65; the “effect on CHEAL sensitive” value turned out to be 70. For the same compound, in the assay with LOLSS ((A) alone, 12.5 g of AS/ha), the “effect … - group G (NTR)” value amounted to 75; the “effect … (NTR) and C2 (NA)” value was 50; the “effect … (TSR, NTR) and C2 (NA)” value is reported as 50; the “effect on LOLSS sensitive” value came to 80. In addition, in the assay on ERIBO ((A) alone, 12.5 g of AS/ha), the “effect on ERIBO resistant - group B” value was found to be 60; the “effect on ERIBO sensitive” value is listed as 70. Moreover, the foliar effect in the assay with ERICA [2] (setting [7]) was determined as 50%. The foliar effect with ERICA [2] (ERICA sensitive) was 50%. In [3], the “TTTTT resistant mean (effect)” value stood at 52% and the “TTTTT sensitive mean (effect)” value came to 68%.

For `CCOC(=O)c1ccccc1S(=O)(=O)NC(=O)Nc1nc(Cl)cc(OC)n1` [(B4), chlorimuron-ethyl], the foliar effect in the assay with AMAPA came out at 30%. The foliar effect in the assay on EPHHL (setting [4]) came out at 30%. The foliar effect in the assay on EPHHL (setting [5]) came out at 30%. In addition, the foliar effect in the assay with EPHHL (EPHHL sensitive) is reported as 60%. For the same compound, in the assay with APESV (setting [6]), the “effect on APESV resistant - group B” value was 40; the “effect on APESV sensitive” value was 90. Further, in the assay with ERICA [1] (setting [6]), the “effect on ERICA resistant - group B” value amounted to 0; the “effect on ERICA sensitive” value turned out to be 100. In the assay on CHEAL (setting [6]), the “effect on CHEAL resistant - group B” value worked out at 60; the “effect on CHEAL sensitive” value worked out at 90. In the assay on LOLSS (setting [6]), the “effect … - group G (NTR)” value is given as 60; the “effect … (NTR) and C2 (NA)” value amounted to 55; the “effect … (TSR, NTR) and C2 (NA)” value is 10; the “effect on LOLSS sensitive” value was found to be 70. In addition, in the assay on ERIBO (setting [6]), the “effect on ERIBO resistant - group B” value came to 0; the “effect on ERIBO sensitive” value is recorded as 100. The foliar effect with ERICA [2] (setting [7]) is 60%. In addition, the foliar effect in the assay on ERICA [2] (ERICA sensitive) was determined as 80%. In assay [3], the “TTTTT resistant mean (effect)” value came to 29% and the “TTTTT sensitive mean (effect)” value was 82%.
